Literature values as cited in US12509462B2, “3-(phenylsulfonyl)-[1,2,3]triazolo[1,5A]quinazolin-5(4H)-one derivatives” (BIOVERSYS AG, priority 2018, dated 2025).

System: hla, psmα and pvl
Conditions: across all four agr groups; cited from earlier work

For `CC(C)c1ccc(S(=O)(=O)c2nnn3c2nc(O)c2ccccc23)cc1` [Savirin, reference compound], the “Modulation of AgrA-regulated toxin gene transcription such as hla, psmα and pvl” value is listed as “potent modulator”.
